Measured values: patent publication US8765771B2, “Condensed pyridine or condensed pyrimidine derivative, and medicinal agent comprising same” (Kowa Co., Ltd., priority 2010, dated 2014)

System: Hamster pancreatic β cell strain HIT-T15 cells
Assay: Action of promoting insulin secretion (Test Example 1)
Type: cell-based
Conditions: Mesocricetus auratus, glucose 2 mM, 1 hour at 37° C., insulin in the supernatant, 0.0001 μM to 10 μM, read-out: EC50 (50% effect concentration, insulin secretion)
Protocol: Action of Promoting Insulin Secretion
Hamster pancreatic β cell strain HIT-T15 cells were subcultured by using a Ham's F-12K culture medium containing penicillin (100 unit/mL), streptomycin (100 μg/mL) and 10% fetal bovine serum. The cells were sown on a 24-well cell culture plate, cultured at 37° C. for 48 hours, and washed with a 0.10 albumin KRBH buffer. Subsequently, the cells were allowed to stand in the same buffer at 37° C. for 1 hour. Glucose was added thereto so as to give a final concentration of 2 mM, and the compound of the present invention that had been dissolved in dimethylsulfoxide at a concentration of 1.000-fold of the respective concentrations (from 0.0001 μM to 10 μM at a common ratio of 10) was further added under a condition that the compound was included in an amount of 0.1 volume % in the buffer. After the addition of the compound of the present invention, the cells were allowed to stand at 37° C. for 1 hour, and the concentration of the insulin included in the supernatant was measured by an insulin kit (SCETI Medical Labo K. K.). A hamster insulin standard solution (SHIBAYAGI Co., Ltd.) was used as a standard solution. A control to which only dimethylsulfoxide had been added was used. The results are shown in Table 8 as the 50% effect concentrations (EC50 values, 50% effect concentrations)) of the respective subject compounds. The EC50 values were calculated by using a statistical analysis program, SAS Pre-Clinical Package Ver 5.0 (SAS institute Japan Co., Tokyo).

EC50 [nM]	SMILES
50.7	CC(C)(C)OC(=O)N1CCC(c2csc3c(Nc4ccc(S(C)(=O)=O)cc4F)ncnc23)CC1 [Example 27, tert-butyl 4-(4-{[2-fluoro-4-(methylsulfonyl)phenyl]amino}thieno[3,2-d]pyrimidin-7-yl)piperidine-1-carboxylate]
9.1	CS(=O)(=O)c1ccc(Nc2ncnc3c(C4CCN(S(=O)(=O)C5CCCCC5)CC4)coc23)c(F)c1 [Example 12, 7-[1-(cyclohexylsulfonyl)piperidin-4-yl]-N-[2-fluoro-4-(methylsulfonyl)phenyl]furo[3,2-d]pyrimidine-4-amine]
58.4	CC(C)(C)COC(=O)N1CCC(c2coc3c(Nc4ccc(S(C)(=O)=O)cc4F)ncnc23)CC1 [Example 35, neopentyl 4-(4-{[2-fluoro-4-(methylsulfonyl)phenyl]amino}furo[3,2-d]pyrimidin-7-yl)piperidine-1-carboxylate]
51.9	CC(C)(C)OC(=O)N1CCC(c2coc3c(Oc4ccc(S(C)(=O)=O)c(F)c4)ncnc23)CC1 [Example 21, tert-butyl 4-{4-[3-fluoro-4-(methylsulfonyl)phenoxy]furo[3,2,d]pyrimidin-7-yl}piperidine-1-carboxylate]
4.5	CS(=O)(=O)c1ccc(Nc2ncnc3c(C4CCN(c5ncc(C(F)(F)F)cn5)CC4)coc23)c(F)c1 [Example 31, N-[2-fluoro-4-(methylsulfonyl)phenyl]-7-{1-[5-(trifluoromethyl)pyrimidin-2-yl]piperidin-4-yl}furo[3,2-d]pyrimidine-4-amine]
42.9	CC(C)(C)OC(=O)N1CCC(c2coc3c(Oc4ccc(-n5cnnn5)cc4)ncnc23)CC1 [Example 41, tert-butyl 4-{4-[4-(1H-tetrazol-1-yl)phenoxy]furo[3,2-d]pyrimidin-7-yl}piperidine-1-carboxylate]
56.2	CS(=O)(=O)c1ccc(Nc2ncnc3c(C4CCN(C(=O)Oc5ccccc5)CC4)coc23)c(F)c1 [Example 37, phenyl 4-(4-{[2-fluoro-4-(methylsulfonyl)phenyl]amino}furo[3,2-d]pyrimidin-7-yl)piperidine-1-carboxylate]
10.7	CC(C)(C)OC(=O)N1CCC(c2coc3c(Oc4ccc(S(C)(=O)=O)cc4)ncnc23)CC1 [Example 40, tert-butyl 4-(4-{4-(methylsulfonyl)phenoxy}furo[3,2-d]pyrimidin-7-yl)piperidine-1-carboxylate]
16.4	CCc1cnc(N2CCC(c3coc4c(N5CCc6cc(S(C)(=O)=O)ccc65)ncnc34)CC2)nc1 [Example 25, 7-[1-(5-ethylpyrimidin-2-yl)piperidin-4-yl]-4-[5-(methylsulfonyl)indolin-1-yl]furo[3,2-d]pyrimidine]
18.7	CS(=O)(=O)c1ccc(Nc2ncnc3c(C4CCN(C(=O)OCC(Cl)(Cl)Cl)CC4)coc23)c(F)c1 [Example 36, 2,2,2-trichloroethyl 4-(4-{[2-fluoro-4-(methylsulfonyl)phenyl]amino}furo[3,2-d]pyrimidin-7-yl)piperidine-1-carboxylate]
15.1	CC(C)(OC(=O)N1CCC(c2coc3c(Nc4ccc(S(C)(=O)=O)cc4F)ncnc23)CC1)C(F)(F)F [Example 33, 1,1,1-trifluoro-2-methylpropan-2-yl 4-(4-{[2-fluoro-4-(methylsulfonyl)phenyl]amino}furo[3,2-d]pyrimidin-7-yl)piperidine-1-carboxylate]
3.6	CC(C)(C)OC(=O)N1CCC(c2coc3c(N4CCc5cc(S(C)(=O)=O)ccc54)ncnc23)CC1 [Example 24, tert-butyl 4-{4-[5-(methylsulfonyl)indolin-1-yl]furo[3,2-d]pyrimidin-7-yl}piperidine-1-carboxylate]

Continued, compound first:

SMILES	EC50 [nM]
CS(=O)(=O)c1ccc(Nc2ncnc3c(C4CCN(c5ncc(Cl)cn5)CC4)coc23)c(F)c1 [Example 2, 7-[1-(5-chloropyrimidin-2-yl)piperidin-4-yl]-N-[2-fluoro-4-(methylsulfonyl)phenyl]furo[3,2-d]pyrimidine-4-amine]	4
CS(=O)(=O)c1ccc(Nc2ncnc3c(C4CCN(c5ccc(C(F)(F)F)cn5)CC4)coc23)c(F)c1 [Example 6, N-[2-fluoro-4-(methylsulfonyl)phenyl]-7-{1-[5-(trifluoromethyl)pyridin-2-yl]piperidin-4-yl}furo[3,2-d]pyrimidine-4-amine]	20.5
CCc1cnc(N2CCC(c3coc4c(Nc5ccc(S(C)(=O)=O)cc5F)ncnc34)CC2)nc1 [Example 3, 7-[1-(5-ethylpyrimidin-2-yl)piperidin-4-yl]-N-[2-fluoro-4-(methylsulfonyl)phenyl]furo[3,2-d]pyrimidine-4-amine]	14.3
CC(C)(C)OC(=O)N1CCC(c2coc3c(Nc4ccc(S(C)(=O)=O)cc4F)ncnc23)CC1 [Example 1, Tert-Butyl 4-(4-{[2-fluoro-4-(methylsulfonyl)phenyl]amino}furo[3,2-d]pyrimidin-7-yl)piperidine-1-carboxylate]	5.3
CS(=O)(=O)c1ccc(Nc2ncnc3c(C4CCN(S(=O)(=O)C5CC5)CC4)coc23)c(F)c1 [Example 11, 7-[1-(cyclopropylsulfonyl)piperidin-4-yl]-N-[2-fluoro-4-(methylsulfonyl)phenyl]furo[3,2-d]pyrimidine-4-amine]	76.9
CS(=O)(=O)c1ccc(Nc2ncnc3c(C4CCN(c5ncc(F)cn5)CC4)coc23)c(F)c1 [Example 4, N-[2-fluoro-4-(methylsulfonyl)phenyl]-7-[1-(5-fluoropyrimidin-2-yl)piperidin-4-yl]furo[3,2-d]pyrimidine-4-amine]	33.1
CS(=O)(=O)c1ccc(Nc2ncnc3c(C4CCN(c5ncc(Br)cn5)CC4)coc23)c(F)c1 [Example 5, 7-[1-(5-bromopyrimidin-2-yl)piperidin-4-yl]-N-[2-fluoro-4-(methylsulfonyl)phenyl]furo[3,2-d]pyrimidine-4-amine]	12.4
CC(C)OC(=O)N1CCC(c2coc3c(Nc4ccc(S(C)(=O)=O)cc4F)ncnc23)CC1 [Example 8, isopropyl 4-(4-{[2-fluoro-4-(methylsulfonyl)phenyl]amino}furo[3,2-d]pyrimidin-7-yl)piperidine-1-carboxylate]	83.5
CS(=O)(=O)c1ccc(Nc2ncnc3c(C4CCN(C(=O)OCc5ccccc5)CC4)coc23)c(F)c1 [Example 7, benzyl 4-(4-{[2-fluoro-4-(methylsulfonyl)phenyl]amino}furo[3,2-d]pyrimidin-7-yl)piperidine-1-carboxylate]	33.7
